Test results reported in patent publication US8497263B2, “Pyrrolinone derivative and pharmaceutical composition comprising the same” (Shionogi & Co., Ltd., priority 2007, dated 2013).

Key:
human P2X3 receptor = target: T1, human P2X3 receptor (Homo sapiens, UniProt P56373); test: Inhibition of ATP-induced calcium fluorescence (Fluo-3, FDSS 3000) in C6BU-1 cells stably expressing human P2X3 receptor; format: cell-based; details: C6BU-1 cell transfected with human P2X3 receptor gene; 40 nM ATP solution; Fluo-3 fluorescence intensity
T1 construct: expressed in transfected cells
T1 sequence (P56373 1-397): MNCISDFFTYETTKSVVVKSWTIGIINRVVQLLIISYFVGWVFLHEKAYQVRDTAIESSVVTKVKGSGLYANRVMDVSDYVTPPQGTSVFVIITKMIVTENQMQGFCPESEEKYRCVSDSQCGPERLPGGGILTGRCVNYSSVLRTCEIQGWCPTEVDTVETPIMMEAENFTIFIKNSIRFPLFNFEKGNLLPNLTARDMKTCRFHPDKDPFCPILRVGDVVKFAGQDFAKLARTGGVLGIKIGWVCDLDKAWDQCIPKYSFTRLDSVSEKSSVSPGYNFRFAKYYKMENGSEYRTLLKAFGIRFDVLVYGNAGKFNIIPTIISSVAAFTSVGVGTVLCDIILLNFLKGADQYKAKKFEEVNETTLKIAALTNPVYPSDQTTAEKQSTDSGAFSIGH
Protocol: Stably expressing cell line (C6BU-1 cell transfected with human P2X3 receptor gene (GenBank accession number Y07683)) was used. The cells were seeded in a 96-well microtiter plate at a concentration of 8000 cells/well and cultured in the medium (8.3% fetal bovine serum, 8.3% horse serum, 1% antibiotic and antifungal in DMEM) for one day at 37° C. under 5% carbon dioxide atmosphere. The medium was replaced with 4 μM Fluo-3-AM solution (pH7.5) containing 20 mM HEPES, 137 mM NaCl, 2.7 mM KCl, 0.9 mM MgCl2, 5.0 mM CaCl2, 5.6 mM D-glucose, 2.5 mM probenecid, 10% BSA, and 0.08% Pluronic F-127, and incubated at 37° C. under 5% dioxide carbon atmosphere for one hour. The plate was washed with washing buffer (20 mM HEPES, 137 mM NaCl, 2.7 mM KCl, 0.9 mM MgCl2, 5.0 mM CaCl2, 5.6 mM D-glucose, 2.5 mM probenecid, pH7.5), and each well was added with 40 μL of this buffer. The plate was placed in High-Throughput Screening System FDSS 3000 (Hamamatsu Photonics K.K.). Measurement of fluorescence intensity by FDSS 3000 was started, and 40 μL of DMSO solutions containing different concentrations of the test compound as prepared by dilution with dilution buffer (20 mM HEPES, 137 mM NaCl, 2.7 mM KCl, 0.9 mM MgCl2, 5.0 mM CaCl2, 5.6 mM D-glucose, 2.5 mM probenecid, 0.1% Pluronic F-127, pH7.5) were dispensed to each well through the built-in automatic dispenser. Five minutes after, 40 nM ATP solution (50 μL) prepared by dilution with the dilution buffer was dispensed through the built-in automatic dispenser, and the measurement of fluorescence intensity was continued for 3 min. For each well, the specific maximum fluorescence intensity was calculated as the ratio of the maximum fluorescence intensity after addition of the ATP solution to the fluorescence intensity at the starting of the measurement. […] FDSS software (Hamamatsu Photonics K.K.) was used for calculation of the specific maximum fluorescence intensity. IC50 was calculated using Microsoft™ Excel™ (Microsoft Corporation) and XLfit™ (ID Business Solutions Ltd.).

SMILES	melting point [°C]	IC50 (human P2X3 receptor) [nM]
CCOC(=O)c1ccc(N2C(=O)C(=O)C(C(=O)c3ccc(OC)cc3)C2C2CCCCC2)cc1 (stereo not drawn) [Example I-2]	252 to 255	10
CCOC(=O)c1ccc(N2C(=O)C(=O)C(C(=O)c3ccc(OC)cc3)C2c2ccccc2)cc1 (stereo not drawn) [Example I-4]	–	20
CCOC(=O)c1ccc(N2C(=O)C(O)=C(C(=O)c3ccc(OC)cc3)C2C(C)C)cc1 (stereo not drawn) [Example I-20]	–	140
COc1ccc(C(=O)C2C(=O)C(=O)N(c3ccc(C(=O)OC(C)C)cc3)C2c2ccccc2)cc1 (stereo not drawn) [Example I-21]	–	160
COC(=O)c1ccc(C(=O)C2=C(O)C(=O)N(c3ccc(C(F)(F)F)cc3)C2c2ccccc2)cc1 (stereo not drawn) [Example I-24]	–	180
COc1ccc(C(=O)C2=C(O)C(=O)N(c3ccc(-c4nc(C)no4)cc3)C2c2ccc(F)cc2)cc1 (stereo not drawn) [Example I-25]	236 to 239	180
CCOC(=O)c1ccc(N2C(=O)C(O)=C(C(=O)C(C)(C)C)C2c2ccccc2)cc1 (stereo not drawn) [Example I-28]	–	260
CCOC(=O)c1ccc(N2C(=O)C(O)=C(C(=O)c3cccs3)C2c2ccccc2)cc1 (stereo not drawn) [Example I-36]	–	380
CCOC(=O)c1ccc(N2C(=O)C(=O)C(/C(=N\O)c3ccc(OC)cc3)C2c2ccccc2)cc1 (stereo not drawn) [Example I-44]	–	560
CCCCC(=O)C1=C(O)C(=O)N(c2ccc(C(=O)OCC)cc2)C1c1ccccc1 (stereo not drawn) [Example I-49]	–	1020
CCOC(=O)c1csc(N2C(=O)C(O)=C(C(=O)c3ccc(OC)cc3)C2c2ccccc2)n1 (stereo not drawn) [Example I-52]	–	1270
CCOC(=O)c1ccc(N2C(=O)C(O)=C(C(=O)C3CCC3)C2c2ccccc2)cc1 (stereo not drawn) [Example I-53]	–	1280
CCOC(=O)c1ccc(N2C(=O)C(O)=C(C(=O)c3cccn3C)C2c2ccccc2)cc1 (stereo not drawn) [Example I-57]	–	1530
CC(=O)c1ccc(N2C(=O)C(=O)C(C(=O)c3ccc(Cl)cc3)C2c2ccc(Br)cc2)cc1 (stereo not drawn) [Example I-62]	–	1960
COc1ccc(C(=O)C2=C(O)C(=O)N(c3ccc(Cl)cc3)C2c2ccc(F)cc2)cc1 (stereo not drawn) [Example I-66]	–	3460
CCOC(=O)c1ccc(N2C(=O)C(=O)C(C(C)=O)C2c2ccccc2)cc1 (stereo not drawn) [Example I-72]	–	4790
COc1ccc(C(=O)C2=C(O)C(=O)N(c3ccc(C(=O)N(C)C)cc3)C2c2ccccc2)cc1 (stereo not drawn) [Example I-74]	–	5920
COc1ccc(C(=O)C2=C(O)C(=O)N(c3ccc(C#N)cc3)C2c2ccccc2)cc1 (stereo not drawn) [Example I-76]	–	6480
CCOC(=O)c1ccc(N2C(=O)C(O)=C(C(=O)c3ccco3)C2c2ccccc2)cc1 (stereo not drawn) [Example I-77]	–	8010
CCOC(=O)Cc1ccc(N2C(=O)C(O)=C(C(=O)c3ccc(OC)cc3)C2c2ccccc2)cc1 (stereo not drawn) [Example I-79]	–	8950
CCOc1ccc(C(=O)C2C(=O)C(=O)N(c3ccc(OC)cc3)C2c2ccc(Cl)cc2)cc1 (stereo not drawn) [Example I-88]	–	15400
COc1ccccc1C1c2c(-c3ccc(C)cc3)n[nH]c2C(=O)N1c1ccc(F)cc1 (stereo not drawn) [Example I-95]	–	560
O=C1c2[nH]nc(-c3ccc(Cl)cc3)c2C(c2ccc([N+](=O)[O-])cc2)N1c1ccccn1 (stereo not drawn) [Example I-118]	–	17800
COc1cccc(C2c3c(C)n[nH]c3C(=O)N2c2ccc(Br)cc2)c1 (stereo not drawn) [Example I-122]	–	19300
COc1ccc(C2NC(=O)c3[nH]nc(-c4ccc(C)cc4)c32)cc1OC (stereo not drawn) [Example I-124]	–	22000
COc1ccccc1C1c2c(C3CCC3)n[nH]c2C(=O)N1c1ccc(F)cc1 (stereo not drawn) [Example I-260]	–	5630
COc1ccc(C(=O)C2=C(O)C(=O)N(CCc3ccc(F)cc3)C2c2ccccc2OC)cc1 (stereo not drawn) [Example I-273]	–	2200
COc1ccc(-c2n[nH]c3c2C(c2ccccc2OC)N(CCc2ccc(F)cc2)C3=O)cc1 (stereo not drawn) [Example I-278]	–	1400

SMILES	melting point [°C]	IC50 (human P2X3 receptor) [nM]
COc1ccccc1C1c2c(-c3ccc(F)cc3)n[nH]c2C(=O)N1c1ccc(F)cc1 (stereo not drawn) [II-5]	–	1370
CCCCC(=O)C1=C(O)C(=O)N(c2ccc(-c3ccon3)cc2)C1c1ccccc1OC (stereo not drawn) [II-9]	–	860
CO/N=C/c1ccc(N2C(=O)c3[nH]nc(-c4ccc(OC)cc4)c3C2c2ccccc2OC)cc1 (stereo not drawn) [II-13]	–	570
CCOC(=O)c1ccc(N2C(=O)C(=NOC)C(C(=O)c3ccc(OC)cc3)C2c2ccccc2)cc1 (stereo not drawn) [II-16]	–	1510
CCOC(=O)c1ccc(N2C(=O)C(O)=C(C(=NOC)c3ccc(OC)cc3)C2c2ccccc2)cc1 (stereo not drawn) [II-17]	–	305
COc1ccc(/C(N)=C2/C(=O)C(=O)N(c3ccc(C(F)(F)F)cc3)C2c2ccccc2)cc1 (stereo not drawn) [II-22]	–	2310
COc1ccccc1C1C(C(=O)C(C)(C)C)=C(O)C(=O)N1c1ccc(C2=NCCS2)cc1 (stereo not drawn) [II-29]	–	590
COc1ccccc1C1C(C(=O)C2CC2)=C(O)C(=O)N1c1ccc(-c2ccon2)cc1 (stereo not drawn) [II-45]	–	1070
C#Cc1ccc(N2C(=O)C(O)=C(C(=O)c3ccc(OC)cc3)C2c2ccc(F)cc2)cc1 (stereo not drawn) [II-57]	–	1680
C#Cc1ccc(N2C(=O)c3[nH]nc(C(C)(C)C)c3C2c2ccc(F)cc2)cc1 (stereo not drawn) [II-64]	–	1310
O=C(C1=C(O)C(=O)N(c2ccc(-c3ccon3)cc2)C1C1CCCCC1)c1cccnc1 (stereo not drawn) [II-75]	–	370
COc1ccccc1C1C(C(=O)CCOCc2ccccc2)=C(O)C(=O)N1c1ccc(-c2ccon2)cc1 (stereo not drawn) [II-85]	–	2520
COc1ccccc1C1c2c(CCOCc3ccccc3)n[nH]c2C(=O)N1c1ccc(-c2ccon2)cc1 (stereo not drawn) [II-87]	–	1320
COc1ccc(C(=O)C2=C(O)C(=O)N(c3nc(-c4ccncc4)cs3)C2C2CCCCC2)cc1 (stereo not drawn) [II-95]	–	710
O=C(C1=C(O)C(=O)N(c2ccc(-c3ccon3)cc2)C1C1CCCCC1)c1ccc([N+](=O)[O-])cc1 (stereo not drawn) [II-98]	–	70
COc1ccc(-c2n[nH]c3c2C(c2ccccc2)N(c2ccc(C(=O)N(C)C)cc2)C3=O)cc1 (stereo not drawn) [II-106]	–	2080
COc1ccccc1C1C(C(=O)C(C)=O)=C(O)C(=O)N1c1ccc(-c2ccon2)cc1 (stereo not drawn) [II-123]	–	2090
COc1ccccc1C1C(C(=O)C(C)(C)CO)=C(O)C(=O)N1c1ccc(-c2ccon2)cc1 (stereo not drawn) [II-129]	–	740
Nc1ccc(C(=O)C2=C(O)C(=O)N(c3ccc(-c4ccon4)cc3)C2C2CCCCC2)cc1 (stereo not drawn) [II-130]	–	130
COc1ccccc1C1c2c(C(C)(C)C)n[nH]c2C(=O)N1c1ccc(-c2cc(CO)no2)cc1 (stereo not drawn) [II-171]	–	950
COc1ccccc1C1c2c(C(C)(C)C)n[nH]c2C(=O)N1c1ccc(-c2cc(C(=O)N(C)C)no2)cc1 (stereo not drawn) [II-172]	–	2000
COc1ccc(C(=O)C2=C(O)C(=O)N(c3nc4ccc(Cl)cc4s3)C2C2CCCCC2)cc1 (stereo not drawn) [II-181]	–	330
CCC(CC)C1C(C(=O)c2ccc(C(=O)NCCO)cc2)=C(O)C(=O)N1c1ccc(-c2noc(C)n2)cc1 (stereo not drawn) [II-183]	–	32
COc1ccccc1C1c2c(C(C)(C)C)n[nH]c2C(=O)N1c1ccc(-c2cc(NC(=O)OC(C)(C)C)no2)cc1 (stereo not drawn) [II-193]	–	2270
CC(=O)Nc1ccc(C(=O)C2=C(O)C(=O)N(c3ccc(-c4ccon4)cc3)C2C2CCCCC2)cc1 (stereo not drawn) [II-201]	–	10
CC(=O)Nc1ccc(-c2n[nH]c3c2C(C2CCCCC2)N(c2ccc(-c4ccon4)cc2)C3=O)cc1 (stereo not drawn) [II-202]	–	1620
COc1ccc(-c2n[nH]c3c2C(C2CC2)N(c2ccc(-c4ccon4)cc2)C3=O)cc1 (stereo not drawn) [II-217]	–	1870
